Test results published in patent US11590232B2, “Bioconjugates of neuropeptides derivatives” (CENTRE NATIONAL DE LA RECHERCHE SCIENTIFIQUE, priority 2018, dated 2023).

Key:
[1] = In vivo imaging biodistribution (IVIS Lumina) in mice with λ-carrageenan-induced paw inflammation; parameters: species or system Swiss mice; conditions: i.v. injection, λ-carrageenan administered mice
Procedure: In parallel, control non-inflamed shaved mice (injected with 20 μL saline into the right hind paw, instead of λ-carrageenan), received also injection of fluorescent LENK-SQ NPs. The biodistribution of the NPs was recorded at 0.5, 2, 4, 6 and 24 h after excitation at 640 nm and emission in the 695-775 nm filter respectively, using IVIS Lumina LT series III system (Caliper, Life science). During imaging, the mice were kept on the imaging stage under anesthesia with 2% isoflurane gas in oxygen flow (1 L/min) and were imaged in ventral position. Images and measures of fluorescence signals were acquired and analyzed with Living Imaging®. To measure photon radiance, regions of interest (ROI, threshold of 35%) were selected on the paw of the mice and average radiant efficiency values were used for quantification. Threshold of ROI for the inflamed paw was then pasted on the non-inflamed paw to compare the radiance with the same region.

[2] = test system: central or peripheral opioid receptors; test: Opioid receptor blockade with naloxone or naloxone methiodide before agonist, Hargreaves test; assay type: in vivo, Sprague-Dawley rats; conditions: for reduction of AUC value by NaI pre-treatment compared with agonist alone: NaI (naloxone, brain-permeant) 0.5 mg/kg s.c. 15 min before agonist; for reduction of AUC value by NaI-M pre-treatment compared with agonist alone: NaI-M (naloxone methiodide, brain-impermeant) 0.5 mg/kg s.c. 15 min before agonist
[3] = Dynamic light scattering (DLS) measurement of LENK-SQ NPs: size, zeta potential; assay type: physicochemical; conditions: in 0.1 mM KCl
Procedure: The mean particle size, polydispersity index (PDI) and zeta potential were primarily evaluated by DLS (Nano ZS, Malvern; 173° scattering angle at 25° C.).
The measurements were performed in triplicate following appropriate dilution of the nanoparticles in water (DLS) or in 0.1 mM KCl (zeta potential).

[4] = 37° C.
Procedure: In the case of LENK-SQ-Diox NPs, diluted serum (30% in 5% dextrose solution) was used for the release study. […] To quantify the residual LENK-SQ bioconjugate and the released LENK, the resulting supernatants (150 μL) were evaporated to dryness at 40° C. under nitrogen flow, and then solubilized in 150 μL of Milli-Q water.

[5] = test system: thermal hyperalgesia in λ-carrageenan-treated rats; test: Hargreaves test (thermal nociceptive test) in λ-carrageenan-induced inflammatory pain; assay type: in vivo, Sprague-Dawley rats
[6] = diluted mouse serum (30% in 5% dextrose solution)

SMILES: CCCCCCCCCCCCCCCCCCN1/C(=C/C=C/C=C/C2=[N+](CCCCCCCCCCCCCCCCCC)c3ccccc3C2(C)C)C(C)(C)c2ccccc21.[O-][Cl+3]([O-])([O-])[O-] [DiD solution]
- accumulation of fluorescence in the inflamed paw [1]: no significant accumulation of fluorescence

SMILES: CC(C)=CCC/C(C)=C/CC/C(C)=C/CC/C=C(\C)CC/C=C(\C)CCC(=O)NC(Cc1ccc(O)cc1)C(=O)NCC(=O)NCC(=O)NC(Cc1ccccc1)C(=O)NC(CC(C)C)C(=O)O (centres unmarked) [LENK-SQ-Am, Leu-enkephalin-squalene Bioconjugate with Amide Spacer]
- reduction of AUC value by NaI pre-treatment compared with agonist alone [2]: 73%
- reduction of AUC value by NaI-M pre-treatment compared with agonist alone [2]: 96%
- zeta potential (sign of charge) of NPs [3]: negative
- time stable in serum without significant decrease of bioconjugate ([4]; mouse serum): ≥ 48 h

SMILES: CC(C)=CCC/C(C)=C/CC/C(C)=C/CC/C=C(\C)CC/C=C(\C)CCCOC(=O)COCC(=O)NC(Cc1ccc(O)cc1)C(=O)NCC(=O)NCC(=O)NC(Cc1ccccc1)C(=O)NC(CC(C)C)C(=O)O (centres unmarked) [LENK-SQ-Dig, Leu-enkephalin-squalene Bioconjugate with diglycolic Spacer]
- time of decline of PWL down to baseline ([5]; 20 mg/kg i.v., rats): 220 min
- zeta potential (sign of charge) of NPs [3]: negative
- release of free LENK peptide ([4]; mouse serum): no presence of free peptide was detected
- time of complete disappearance of the bioconjugate ([4]; mouse serum): 2 h

SMILES: CC(C)=CCC/C(C)=C/CC/C(C)=C/CC/C=C(\C)CC/C=C(\C)CCC(=O)OCOC(=O)C(CC(C)C)NC(=O)C(Cc1ccccc1)NC(=O)CNC(=O)CNC(=O)C(N)Cc1ccc(O)cc1 (centres unmarked) [LENK-SQ-Diox, Leu-Enkephalin-Squalene Bioconjugate with Dioxycarbonyl Spacer]
- reduction of AUC value by NaI pre-treatment compared with agonist alone [2]: 66%
- reduction of AUC value by NaI-M pre-treatment compared with agonist alone [2]: 81%
- zeta potential (sign of charge) of NPs [3]: net positive charge
- release of the free LENK peptide [4, 6]: progressively released the free LENK peptide
- time till which the concentration of the bioconjugate decreased gradually [4, 6]: 7 h

SMILES: CN1CC[C@]23c4c5ccc(O)c4O[C@H]2[C@@H](O)C=C[C@H]3[C@H]1C5 [morphine]
- paw withdrawal latency (PWL) ([5]; 10 min post-injection, morphine 1 mg/kg, 3 h after λ-carrageenan, rats): 12.87 ± 1.38 s
- time post-administration at which no longer significant anti-hyperalgesic effect was observed ([5]; morphine 1 mg/kg, rats): 100 min
- maximal PWL values compared with basal PWL of control naïve rats ([5]; λ-carrageenan-treated rats): twice as high as those found in control naïve rats
